Each structure is given as a SMILES string.

By inhibition is commonly meant the change of the read-out against control, counted positive when it falls. The CC50 is the concentration at which the toxic effect on the cells reaches its halfway point. Low values mean greater toxicity to the cells, high ones lower toxicity to the cells. Usually EC50 stands for the concentration that produces a half-maximal response. A lower EC50 goes with greater potency. For orientation: IC50 means the point on the concentration scale where inhibition reaches its midpoint.

For data set [1], the target named is T1, SARS-CoV-2 Nsp14 MTase (Severe acute respiratory syndrome coronavirus 2, UniProt P0DTD1). The experiment in a line: Nsp14 MTase assay detected with MTase-Glo methyltransferase assay kit. Format: biochemical. The conditions noted are these: for inhibition at 10 µM: read-out: MTase % inhibition at 10 μM; for IC50: methylation reaction detected by MTase-Glo kit. As for the experimental part:
Detection using MTase-Glo™ methyltransferase assay kits. The assay was run according to Promega MTase-Glo™ kit (V7601) instructions. […]. GpppA was purchased by New England Biolabs and used at a final concentration of 3 uM/reaction. […] […] Compounds, Nsp14, GpppA at MTase-Glo™ reagent were pre-incubated for 15 min at room temperature. The assay was started with addition of SAM at final concentration of 1 uM/reaction (negative control had no SAM). The assay plate was mixed well with a plate shaker after each addition. The reaction was incubated for 15 min at 30° C. MTase-Glo™ detection solution was added, and the plate was incubated 60 min at room temperature. Luminescence was read on an M5e spectrophotometer.

The subject of data set [2] is A549/ACE2/TMPRSS2 cells. Put plainly: in vitro. Conditions: for CC50: A549/ACE2/TMPRSS2 cells; for cytotoxicity: human, 100 μM; for CC50: NT (nontoxic): cell viability at 50 μM. As for the experimental part:
Percentage of infected cells was determined by dividing the number of infected cells by the total number of cells per well. The percentage of infected cells and total number of cells for each treatment was plotted into GraphPad prism (GraphPad Software; San Diego, CA, USA) to perform a non-linear regression analysis, generate infectious dose-response curves and to calculate EC50 and CC50 values.
Viability assays for the non-infected A549/ACE2/TMPRSS2 cells were performed using the 3-(4,5-dimethylthiazol-2-yl)-5-(3-carboxymethoxyphenyl)-2-(4-sulfophenyl)-2H-tetrazolium (MTS)-based tetrazolium reduction CellTiter 96 Aqueous Non-Radioactive cell proliferation assay (Promega G5430; Madison, WI) as described. Assays were conducted using parallel plates to those used in the immunofluorescence assay. Experimental details (cell line, number of cells seeded and incubation time) corresponded to those used in the immunofluorescence assay above. The data obtained were used to calculate the CC50 value using GraphPad Prism software.

The test system of data set [3] is SARS-CoV-2 isolate USA-WA1/2020. Put plainly: microbe, parasite or virus in culture. The conditions noted are these: Severe acute respiratory syndrome coronavirus 2, A549-ACE2, 48 h.
Data set [4] shares this test system. The conditions noted are these: inhibition at 50 μM.
The target in data set [5] is T1, SARS-CoV-2 Nsp14 MTase. Put plainly: biochemical. It is filed as biochemical.
[6] abbreviates: LC-MS/MS detection of SAH, read-out: MTase IC50.

For `Nc1ncnn2c([C@@H]3O[C@H](CNS(=O)(=O)c4ccc(-c5ccccc5)cc4)[C@@H](O)[C@H]3O)ccc12` [Compound 47, N-(((2R,3S,4R,5S)-5-(4-Aminopyrrolo[2,1-f][1,2,4]triazin-7-yl)-3,4-dihydroxytetrahydrofuran-2-yl)methyl)-[1,1′-biphenyl]-4-sulfonamide], the inhibition at 10 µM in data set [1] stood at 85%. On the same count and under the same terms, in the case of `COc1ccc(S(=O)(=O)NC[C@H]2O[C@@H](n3ccc4c(N)ncnc43)[C@H](O)[C@@H]2O)cc1C#N` [Compound C11, N-(((2R,3S,4R,5R)-5-(4-Amino-7H-pyrrolo[2,3-d]pyrimidin-7-yl)-3,4-dihydroxytetrahydrofuran-2-yl)methyl)-3-cyano-4-methoxybenzenesulfonamide] it was 98%; in that of `CCN(C[C@H]1O[C@@H](n2ccc3c(N)ncnc32)[C@H](O)[C@@H]1O)S(=O)(=O)c1ccc(OC)c(C#N)c1` [Compound C13, N-(((2R,3S,4R,5R)-5-(4-Amino-7H-pyrrolo[2,3-d]pyrimidin-7-yl)-3,4-dihydroxytetrahydrofuran-2-yl)methyl)-3-cyano-N-ethyl-4-methoxybenzenesulfonamide], 100%. The same measure, in the same setting: in the case of `Nc1ncnn2c([C@@H]3O[C@H](CNS(=O)(=O)c4cccc(-c5ccccc5)c4)[C@@H](O)[C@H]3O)ccc12` [Compound 45, N-(((2R,3S,4R,5S)-5-(4-Aminopyrrolo[2,1-f][1,2,4]triazin-7-yl)-3,4-dihydroxytetrahydrofuran-2-yl)methyl)-[1,1′-biphenyl]-3-sulfonamide] it was 85%. For the molecule `CC(=O)O[C@@H]1[C@H](OC(C)=O)[C@@H](CNS(=O)(=O)c2ccc3ccccc3c2)O[C@H]1n1cnc2c(N)ncnc21` [Compound 8, (2R,3R,4R,5R)-2-(6-Amino-9H-purin-9-yl)-5-((naphthalene-2-sulfonamido)methyl)tetrahydrofuran-3,4-diyl diacetate], in data set [2], the CC50 was more than 100 µM and the “cytotoxicity” value is listed as “minimal cytotoxicity at 100 μM”. A half-maximal response in data set [3] (EC50) required 53 µM. `COc1ccc(S(=O)(=O)NC[C@H]2O[C@@H](c3ccc4c(N)ncnn34)[C@H](O)[C@@H]2O)cc1C#N` [Compound 41, N-(((2R,3S,4R,5S)-5-(4-aminopyrrolo[2,1-f][1,2,4]triazin-7-yl)-3,4-dihydroxytetrahydrofuran-2-yl)methyl)-3-cyano-4-methoxybenzenesulfonamide]: in data set [1], the inhibition at 10 µM stood at 94%. `Nc1ncnc2c1ncn2[C@@H]1O[C@H](C[C@@H](N)CC[C@H](N)C(=O)O)[C@@H](O)[C@H]1O` [sinefungin, reference compound]: the “CC50: NT (nontoxic)” value in data set [2] is on record as “NT^b (NT, nontoxic, >95% cell viability at 50 μM;)”. Besides, in data set [4], the “EC50: NA (not active)” value is reported as “NA^a (NA, not active, <15% inhibition at 50 μM.)”. For the molecule `CCC(CC)COC(=O)[C@H](C)N[P@](=O)(OC[C@H]1O[C@@](C#N)(c2ccc3c(N)ncnn23)[C@H](O)[C@@H]1O)Oc1ccccc1` [remdesivir, reference compound], in data set [2], the CC50 was determined as 43 µM. In data set [3], this molecule returned a concentration for a half-maximal effect (EC50) of 0.093 µM. Regarding `Nc1ncnc2c1ncn2[C@@H]1O[C@H](CNS(=O)(=O)c2ccc3cccnc3c2)[C@@H](O)[C@H]1O` [Compound 4, N-(((2R,3S,4R,5R)-5-(6-Amino-9H-purin-9-yl)-3,4-dihydroxytetrahydrofuran-2-yl)methyl)quinoline-7-sulfonamide], the “MTase inhibitory activity” value in data set [5] is listed as “comparable to that of compound 1”. The concentration for half-maximal inhibition (IC50) in data set [5] (setting [6]) came out at 69 nM. The “CC50: NT (nontoxic)” value in data set [2] is “NT^b (NT, nontoxic, >95% cell viability at 50 μM;)”. Further, the “EC50: NA (not active)” value in data set [4] was “NA^a (NA, not active, <15% inhibition at 50 μM.)”. `Nc1ncnc2c1ncn2[C@@H]1O[C@H](CNCc2ccc3ccccc3c2)[C@@H](O)[C@H]1O` [Compound 1, (2R,3R,4S,5R)-2-(6-Amino-9H-purin-9-yl)-5-(((naphthalen-2-ylmethyl)amino)methyl)tetrahydrofuran-3,4-diol]: in data set [5] (setting [6]), the IC50 was determined as 9600 nM. Besides, the “CC50: NT (nontoxic)” value in data set [2] was “NT^b (NT, nontoxic, >95% cell viability at 50 μM;)”. The “EC50: NA (not active)” value in data set [4] is recorded as “NA^a (NA, not active, <15% inhibition at 50 μM.)”. For `CC(=O)Nc1ncnc2c1ncn2[C@@H]1O[C@H](CNS(=O)(=O)c2ccc3ccccc3c2)[C@@H](O)[C@H]1O` [Compound 6, N-(9-((2R,3R,4S,5R)-3,4-Dihydroxy-5-((naphthalene-2-sulfonamido)methyl)tetrahydrofuran-2-yl)-9H-purin-6-yl)acetamide], the IC50 in data set [5] (LC-MS/MS assay, read-out: IC50) worked out at 48 nM. Besides, the CC50 in data set [2] is more than 100 µM. The “EC50: NA (not active)” value in data set [4] is on record as “NA^a (NA, not active, <15% inhibition at 50 μM.)”.

Turning to `COc1ccc(S(=O)(=O)NC[C@H]2O[C@@H](c3ccc4c(N)ncnn34)[C@H](O)[C@@H]2O)cc1[N+](=O)[O-]` [Compound 43, N-(((2R,3S,4R,5S)-5-(4-aminopyrrolo[2,1-f][1,2,4]triazin-7-yl)-3,4-dihydroxytetrahydrofuran-2-yl)methyl)-4-methoxy-3-nitrobenzenesulfonamide], in data set [1], the inhibition at 10 µM worked out at 79%.

As for `Nc1ncnc2c([C@@H]3O[C@H](CNS(=O)(=O)c4ccc5ccccc5c4)[C@@H](O)[C@H]3O)csc12` [Compound B12, N-(((2R,3S,4R,5S)-5-(4-Aminothieno[3,2-d]pyrimidin-7-yl)-3,4-dihydroxytetrahydrofuran-2-yl)methyl)naphthalene-2-sulfonamide], the inhibition at 10 µM in data set [1] stood at 91%. Take `CC(=O)Nc1ncnc2c1ncn2[C@@H]1O[C@H](CNS(=O)(=O)c2ccc3ccccc3c2)[C@@H](OC(C)=O)[C@H]1OC(C)=O` [Compound 9, (2R,3R,4R,5R)-2-(6-Acetamido-9H-purin-9-yl)-5-((naphthalene-2-sulfonamido)methyl)tetrahydrofuran-3,4-diyl diacetate]: in data set [2], the CC50 was more than 100 µM and the “cytotoxicity” value is on record as “minimal cytotoxicity at 100 μM”. The EC50 in data set [3] came to 61 µM. In data set [1], `Nc1ncnn2c([C@@H]3O[C@H](CNS(=O)(=O)c4ccc5ccccc5c4)[C@@H](O)[C@H]3O)cc(F)c12` [Compound 51, N-(((2R,3S,4R,5S)-5-(4-Amino-5-fluoropyrrolo[2,1-f][1,2,4]triazin-7-yl)-3,4-dihydroxytetrahydrofuran-2-yl)methyl)naphthalene-2-sulfonamide] gave an IC50 of 32 nM. Still for that read-out and setting: in the case of `CCN(C[C@H]1O[C@@H](c2ccc3c(N)ncnn23)[C@H](O)[C@@H]1O)S(=O)(=O)c1ccc2ccccc2c1` [Compound 53, N-(((2R,3S,4R,5S)-5-(4-Aminopyrrolo[2,1-f][1,2,4]triazin-7-yl)-3,4-dihydroxytetrahydrofuran-2-yl)methyl)-N-ethylnaphthalene-2-sulfonamide] it was 156 nM. Same read-out and setting: in the case of `Nc1ncnc2c1ccn2[C@@H]1O[C@H](CNS(=O)(=O)c2ccc3ccccc3c2)[C@@H](O)[C@H]1O` [Compound C9, N-(((2R,3S,4R,5R)-5-(4-Amino-7H-pyrrolo[2,3-d]pyrimidin-7-yl)-3,4-dihydroxytetrahydrofuran-2-yl)methyl)naphthalene-2-sulfonamide] it was 19 nM; in that of `Nc1ncnn2c([C@@H]3O[C@H](CNS(=O)(=O)c4ccc5c(Cl)cccc5c4)[C@@H](O)[C@H]3O)ccc12` [Compound 39, N-(((2R,3S,4R,5S)-5-(4-aminopyrrolo[2,1-f][1,2,4]triazin-7-yl)-3,4-dihydroxytetrahydrofuran-2-yl)methyl)-5-chloronaphthalene-2-sulfonamide], 49 nM.

For the origin of these results see US20260000698A1 (priority 2022, published 2026).
